Experiment [1] deals with Brassica rapa subsp. chinensis. Kind of experiment: whole plant or invertebrate. The format is functional. Particulars: 72 h, read-out: GI.
Description: Phytotoxicity against Brassica rapa subsp. chinensis assessed as growth inhibition of hypocotyl at 100 ppm treated to seeds after 3 days
The subject of experiment [2] is Brassica rapa subsp. chinensis. Kind of experiment: whole plant or invertebrate. It counts as functional. The following applies: 72 h, read-out: GI. This is another data set of the same source.
Description: Phytotoxicity against Brassica rapa subsp. chinensis assessed as growth inhibition of radicle at 100 ppm treated to seeds after 3 days
Experiment [3] concerns Pythium. Kind of experiment: microbe, parasite or virus in culture. The format is functional. The following applies: read-out: GI.
Description: Fungitoxic activity against Pythium sp. assessed as mycelial growth inhibition at 100 ppm after 4 to 5 days by agar dilution method
Experiment [4] has as its system Athelia rolfsii. Briefly: microbe, parasite or virus in culture. It counts as functional. The following applies: Agroathelia rolfsii, read-out: GI.
Description: Fungitoxic activity against Athelia rolfsii assessed as mycelial growth inhibition at 100 ppm after 4 to 5 days by agar dilution method
The test system of experiment [5] is Athelia rolfsii. Briefly: Fungitoxic activity against Athelia rolfsii assessed as mycelial growth inhibition at 10 ppm after 4 to 5 days by agar dilution method. It counts as functional. Particulars: Agroathelia rolfsii; read-out: GI.
Experiment [6] relates to Pythium. Kind of experiment: Fungitoxic activity against Pythium sp. assessed as mycelial growth inhibition at 10 ppm after 4 to 5 days by agar dilution method. Particulars: read-out: GI.

Data on 25 molecules can be found in ChEMBL document CHEMBL3046649, “Fungitoxic and Phytotoxic Activities of Cinnamic Acid Esters and Amides” (2000).

For the molecule `CCc1cccc(NC(=O)/C=C/c2ccccc2)c1`, the inhibition of growth at 100 ppm in experiment [1] amounted to 2%; in experiment [2], 66%; in the experiment with Pythium [3] it was 74%; with Athelia rolfsii [4] it was 53%. The inhibition of growth at 10 ppm in the experiment with Athelia rolfsii [5] amounted to 35%; in the experiment with Pythium [6], 31%.

Turning to `CCCCCOC(=O)/C=C/c1ccc(C(C)C)cc1` [PENTYL 3-(4-ISOPROPYLPHENYL)ACRYLATE], the inhibition of growth at 100 ppm in experiment [1] stood at 29%; in experiment [2], 0%; in the experiment with Pythium [3] it was 51%; in the experiment on Athelia rolfsii [4], 79%. Also, the inhibition of growth at 10 ppm with Athelia rolfsii [5] came out at 13%; in the experiment on Pythium [6], 3%.

Regarding `COC(=O)/C=C/c1ccc(C(C)C)cc1`, the inhibition of growth at 100 ppm in experiment [1] is 38%; in experiment [2], 21%; in the experiment with Pythium [3] it was 82%; with Athelia rolfsii [4], 97%. Also, the inhibition of growth at 10 ppm turned out to be 35% in the experiment with Athelia rolfsii [5] and 7% in the experiment on Pythium [6].

As to `CC(C)c1ccc(/C=C/C(=O)OCCOc2ccccc2)cc1`, the inhibition of growth at 100 ppm in experiment [1] worked out at 32%; in experiment [2], 0%; in the experiment on Pythium [3], 46%; in the experiment with Athelia rolfsii [4] it was 64%. Moreover, the inhibition of growth at 10 ppm with Athelia rolfsii [5] was 8%; with Pythium [6] it was 3%.

For the molecule `O=C(/C=C/c1ccc(Cl)cc1)OCCOc1ccccc1`, the inhibition of growth at 100 ppm in experiment [1] is 30%; in experiment [2], 0%; with Pythium [3], 54%; with Athelia rolfsii [4], 83%. Also, the inhibition of growth at 10 ppm turned out to be 16% in the experiment with Athelia rolfsii [5] and 9% in the experiment with Pythium [6].

For the molecule `CCC(C)NC(=O)/C=C/c1ccc(C(C)C)cc1` (stereo not given) [N-SEC-BUTYL-3-(4-ISOPROPYLPHENYL)ACRYLAMIDE], the inhibition of growth at 100 ppm came to 29% in experiment [1], 46% in experiment [2], 73% with Pythium [3] and 84% in the experiment with Athelia rolfsii [4]. Besides, the inhibition of growth at 10 ppm with Athelia rolfsii [5] is 33%; with Pythium [6], 36%.

Take `CCCCCCNC(=O)/C=C/c1ccccc1` [N-HEXYLCINNAMAMIDE]: the inhibition of growth at 100 ppm in experiment [1] was determined as 55%; in experiment [2], 82%; in the experiment with Pythium [3] it was 87%; in the experiment with Athelia rolfsii [4], 91%. The values for the inhibition of growth at 10 ppm with Athelia rolfsii [5] and in the experiment on Pythium [6] were 32% and 14%, respectively.

As to `CC(C)=CCCC(C)CCOC(=O)/C=C/c1ccc(C(C)C)cc1` (stereo not given) [3,7-DIMETHYLOCT-6-ENYL 3-(4-ISOPROPYLPHENYL)ACRYLATE], the inhibition of growth at 100 ppm was determined as 39% in experiment [1], 0% in experiment [2], 69% in the experiment on Pythium [3] and 87% in the experiment on Athelia rolfsii [4]. The results for the inhibition of growth at 10 ppm in the experiment on Athelia rolfsii [5] and in the experiment on Pythium [6] were 9% and 12%, respectively.

As to `CC(C)CNC(=O)/C=C/c1ccc(C(C)C)cc1` [N-ISOBUTYL-3-(4-ISOPROPYLPHENYL)ACRYLAMIDE], the inhibition of growth at 100 ppm in experiment [1] came to 34%; in experiment [2], 45%; in the experiment with Pythium [3] it was 58%; in the experiment on Athelia rolfsii [4] it was 42%. Further, the values for the inhibition of growth at 10 ppm in the experiment on Athelia rolfsii [5] and in the experiment on Pythium [6] were 37% and 42%, respectively.

Regarding `CCCCNC(=O)/C=C/c1ccc(Cl)cc1` [N-BUTYL-3-(4-CHLOROPHENYL)ACRYLAMIDE], the inhibition of growth at 100 ppm in experiment [1] came out at 44%; in experiment [2], 62%; in the experiment on Pythium [3] it was 80%; with Athelia rolfsii [4], 93%. In addition, the inhibition of growth at 10 ppm in the experiment with Athelia rolfsii [5] was 58%; with Pythium [6], 45%.

With `CCCOC(=O)/C=C/c1ccccc1` [PROPYL CINNAMATE], the inhibition of growth at 100 ppm in experiment [1] was determined as 31%; in experiment [2], 7%; in the experiment on Pythium [3], 95%; in the experiment on Athelia rolfsii [4], 86%. The inhibition of growth at 10 ppm in the experiment with Athelia rolfsii [5] is 40%; in the experiment on Pythium [6] it was 18%.

Turning to `CC(C)OC(=O)/C=C/c1ccc(Cl)cc1Cl` [ISOPROPYL 3-(2,4-DICHLOROPHENYL)ACRYLATE], the inhibition of growth at 100 ppm in experiment [1] is 42%; in experiment [2], 54%; with Pythium [3], 71%; with Athelia rolfsii [4], 93%. Besides, the inhibition of growth at 10 ppm in the experiment with Athelia rolfsii [5] was 50%; in the experiment on Pythium [6] it was 20%.

Turning to `CC(C)OC(=O)/C=C/c1ccccc1` [ISOPROPYL CINNAMATE], the inhibition of growth at 100 ppm in experiment [1] turned out to be 2%; in experiment [2], 2%; in the experiment with Pythium [3], 82%; in the experiment with Athelia rolfsii [4], 86%. Besides, the inhibition of growth at 10 ppm in the experiment with Athelia rolfsii [5] turned out to be 41%; in the experiment with Pythium [6] it was 5%.

Consider `CCCOC(=O)/C=C/c1ccc(Cl)cc1` [PROPYL 3-(4-CHLOROPHENYL)ACRYLATE], for which the inhibition of growth at 100 ppm in experiment [1] is 40%; in experiment [2] it was 78%; in the experiment on Pythium [3], 87%; with Athelia rolfsii [4], 97%. Moreover, the inhibition of growth at 10 ppm with Athelia rolfsii [5] was found to be 41%; with Pythium [6], 8%.

With `CCCCCNC(=O)/C=C/c1ccccc1`, the inhibition of growth at 100 ppm in experiment [1] was found to be 60%; in experiment [2] it was 76%; with Pythium [3] it was 78%; in the experiment with Athelia rolfsii [4] it was 87%. The inhibition of growth at 10 ppm in the experiment on Athelia rolfsii [5] came to 18%; in the experiment with Pythium [6], 23%.

With `CC(C)NC(=O)/C=C/c1ccc(C(C)C)cc1` [N-ISOPROPYL-3-(4-ISOPROPYLPHENYL)ACRYLAMIDE], the inhibition of growth at 100 ppm in experiment [1] stood at 50%; in experiment [2] it was 62%; in the experiment on Pythium [3], 62%; with Athelia rolfsii [4] it was 80%. In addition, the inhibition of growth at 10 ppm in the experiment with Athelia rolfsii [5] and in the experiment on Pythium [6] was 40% throughout.

Regarding `CCC(C)NC(=O)/C=C/c1ccc(Cl)cc1` (stereo not given) [N-SEC-BUTYL-3-(4-CHLOROPHENYL)ACRYLAMIDE], the inhibition of growth at 100 ppm in experiment [1] was determined as 40%; in experiment [2], 61%; with Pythium [3], 43%; with Athelia rolfsii [4] it was 88%. For the same molecule, the figures for the inhibition of growth at 10 ppm in the experiment on Athelia rolfsii [5] and in the experiment on Pythium [6] were 44% and 41%, respectively.

As for `CC(C)c1ccc(/C=C/C(=O)OCCc2ccccc2)cc1` [PHENETHYL 3-(4-ISOPROPYLPHENYL)ACRYLATE], the inhibition of growth at 100 ppm in experiment [1] is 36%; in experiment [2], 0%; in the experiment on Pythium [3] it was 49%; in the experiment with Athelia rolfsii [4], 70%. Also, the values for the inhibition of growth at 10 ppm in the experiment on Athelia rolfsii [5] and with Pythium [6] were 10% and 13%, respectively.

Regarding `CC(C)OC(=O)/C=C/c1ccc(Cl)cc1` [ISOPROPYL 3-(4-CHLOROPHENYL)ACRYLATE], the inhibition of growth at 100 ppm in experiment [1] worked out at 18%; in experiment [2], 0%; with Pythium [3], 86%; in the experiment with Athelia rolfsii [4], 99%. Also, the inhibition of growth at 10 ppm in the experiment with Athelia rolfsii [5] came to 34%; in the experiment with Pythium [6] it was 7%.

Turning to `CC(C)OC(=O)/C=C/c1ccc(C(C)C)cc1` [ISOPROPYL 3-(4-ISOPROPYLPHENYL)ACRYLATE], the inhibition of growth at 100 ppm came out at 18% in experiment [1], 0% in experiment [2], 70% in the experiment with Pythium [3] and 92% in the experiment with Athelia rolfsii [4]. Besides, the inhibition of growth at 10 ppm amounted to 42% with Athelia rolfsii [5] and 21% with Pythium [6].

For `CC(C)=CCCC(C)CCOC(=O)/C=C/c1ccc(Cl)cc1` (stereo not given) [3,7-DIMETHYLOCT-6-ENYL 3-(4-CHLOROPHENYL)ACRYLATE], the inhibition of growth at 100 ppm came to 26% in experiment [1], 15% in experiment [2], 64% with Pythium [3] and 83% in the experiment on Athelia rolfsii [4]. Further, the inhibition of growth at 10 ppm came out at 19% in the experiment on Athelia rolfsii [5] and 8% in the experiment on Pythium [6].

In the case of `Cc1cccc(NC(=O)/C=C/c2ccccc2)c1` [N-M-TOLYLCINNAMAMIDE], the inhibition of growth at 100 ppm in experiment [1] was found to be 13%; in experiment [2], 59%; in the experiment with Pythium [3], 85%; in the experiment with Athelia rolfsii [4] it was 83%. The inhibition of growth at 10 ppm turned out to be 34% in the experiment with Athelia rolfsii [5] and 52% in the experiment on Pythium [6].

As to `CCCNC(=O)/C=C/c1ccc(Cl)cc1` [3-(4-CHLOROPHENYL)-N-PROPYLACRYLAMIDE], the inhibition of growth at 100 ppm came to 43% in experiment [1], 64% in experiment [2], 88% in the experiment on Pythium [3] and 97% with Athelia rolfsii [4]. Further, the inhibition of growth at 10 ppm amounted to 32% with Athelia rolfsii [5] and 30% with Pythium [6].

`C=CCc1ccc(OC(=O)/C=C/c2ccc(C(C)C)cc2)c(OC)c1` [4-ALLYL-2-METHOXYPHENYL 3-(4-ISOPROPYLPHENYL)ACRYLATE]: the inhibition of growth at 100 ppm in experiment [1] was 40%; in experiment [2], 0%; in the experiment on Pythium [3], 62%; with Athelia rolfsii [4] it was 86%. Also, the inhibition of growth at 10 ppm in the experiment on Athelia rolfsii [5] and in the experiment with Pythium [6] was 8% in each case.

In the case of `O=C(/C=C/c1ccc(Cl)cc1Cl)OCCc1ccccc1` [PHENETHYL 3-(2,4-DICHLOROPHENYL)ACRYLATE], the inhibition of growth at 100 ppm in experiment [1] is 32%; in experiment [2], 0%; with Pythium [3], 63%; in the experiment on Athelia rolfsii [4], 79%. Besides, the inhibition of growth at 10 ppm in the experiment on Athelia rolfsii [5] came out at 0%; in the experiment with Pythium [6], 21%.
